Results reported in patent US5229265A, “Process for analyzing clastogenic agents” (Litron Laboratories, priority 1990, dated 1993).
Where “and” joins values, the source holds several entries; their conditions need not be identical. Equal values may be shown once. Entries after “also recorded” stand apart in the source; their conditions may differ.

How the values were obtained:
[1] = system: micronucleated cells in blood; assay: Flow cytometric micronucleus assay, dual parameter data, MMS, Hoechst 33258 stain, per 500,000 cells; assay type: in vivo, mouse
Text: The fixation procedure can affect the permeability of a cell, cell morphology and the amount of undesirable autofluorescence that is associated with a cell preparation. Fixing procedures can cause changes in cell structure (that are reflected in the light scatter patterns) as well as changes in the distribution of the dye molecules within the cells (resulting in altered fluorescence emission patterns). Practioners of the art are unaware that fixing the cells at ultralow temperatures circumvents these fixation problems and provides cells that are suitable for subsequent staining and FCM analysis. Initially, the cells are centrifuged in order to separate them from serum components which could aggregate when added to cold fixative. To fix cells, a fresh blood sample (25 μl) containing an anticogulant is suspended in a solution containing 1% BSA and 10% dimethylsulfoxide (DMSO) in PBS (2 ml). The cells are centrifuged at 500×g for five minutes at room temperature. The supernatant is discarded and the pellet is resuspended in the small amount of residual supernatant that remains. This cell suspension is cooled to 0° C., the cells are diluted further with cold (-70° C.) absolute methanol (2 ml) and it is incubated at -70° C. for five minutes. The cell suspension is then immediately diluted with 1% BSA in PBS (10 ml) and is centrifuged at 500×g for 5 minutes. The low temperature treatment yields fixed cells with good morphology as viewed with either inverted phase contrast microscopy or fluorescent microscopy. […] Cells fixed in this way can be stored at 0° C. for weeks with no significant deterioration and are ready for staining and MN analysis.
It is known to practioners in the art that a variety of fluorescent dyes can be used to stain the DNA and RNA of cells. […] By choosing proper concentrations of these two dyes in conjunction with 363 nm excitation wavelength, it is possible to obtain a blue fluorescence signal from the Hoechst 33258 labeled micronucleii. A red fluorescence signal can be obtained from propidium iodide labeled PCEs. […]

[2] = system: micronucleated cells in blood; assay: Single parameter flow cytometric micronucleus analysis, cyclophosphamide, effect of analysis window size; assay type: in vivo, mouse
Method: In order to show this single parameter embodiment of this invention, the instrument was aligned with the malaria parasite, P. berghei, data was acquired, and analysis windows were defined relative to the malaria peak. […] A prominent peak, characteristic of cells single parasites, is evident. The primary analysis window was used to bracket the main peak and extends to the third log has mark. […] Blood samples (t=0 and t=96 hr) from a mouse that was dosed with cyclophosphamide (at t=0 and t=48 hrs) were stained with […] and the events were also acquired in the single parameter mode. FIGS. 9A and 9B show the blue fluorescence histograms that were obtained for the t=0 and the t=96 hr samples, respectively. The analysis windows shown in FIG. 9 are those that were initially set up with the malaria infected blood sample shown in FIG. 8. The number of events present in the primary analysis windows are shown. […]
Practioners in the art are presently unaware of the need for internal quality control on the flow cytometer signals during the analysis of each sample. […] As indicated earlier, neither RBC, PCEs, MN-cells nor the nucleated cell populations provide proper signals for evaluating instrument alignment since they are either nor present in sufficient quantities, the populations are too dispersed, or cell staining variations would be introduced. […]

[3] = MMS 100 μg/g body weight IP at 0 and 48 hours, Hoechst 33258

Row | SMILES | Mns (96 hr) [1, 3] | Δ (T96 - T0), change in MNs [1, 3] | change (Δ) in MNs versus control mice ([1]; MMS 100 μg/g body weight at 0 and 48 hours, 96 hr blood) | clastogen stimulated increase in MNs ([2]; cyclophosphamide at t=0 and t=48 hrs, primary or expanded window) | Sum96 (t = 96 hr) ([2]; cyclophosphamide, primary window plus sequentially added secondary windows 2-8)
1 | COS(C)(=O)=O [MMS, methyl methanesulfonate] | 1654 MNs per 500,000 cells and 1424 MNs per 500,000 cells and 1360 MNs per 500,000 cells and 1662 MNs per 500,000 cells | 713 MNs per 500,000 cells and 620 MNs per 500,000 cells and 512 MNs per 500,000 cells and 540 MNs per 500,000 cells and 596 ± 90 MNs per 500,000 cells | significantly higher than the Δ values for the control mice; also recorded: increase in the number of MNs in the analysis area relative to the initial blood | – | –
2 | O=P1(N(CCCl)CCCl)NCCCO1 (centres unmarked) [cyclophosphamide] | – | – | – | clastogen stimulated increase in MNs is clearly evident | 1480 MN events and 1563 MN events and 1644 MN events and 1713 MN events and 1778 MN events and 1839 MN events and 1915 MN events
